Test results from PubChem BioAssay (NCI).
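These data come from cells grown in 96-well plates and exposed to compound for 48 hours at five concentrations. GI50 is the concentration that inhibits growth by half. TGI: concentration producing complete growth inhibition.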

Legend:
Assay in all cases: growth of human tumour cells (NCI), 48 h
OVCAR-4 ovarian = system: OVCAR-4 ovarian
NCI-H522 lung = system: NCI-H522 lung
SF-268 CNS = system: SF-268 CNS
OVCAR-3 ovarian = system: OVCAR-3 ovarian
A549 NSCLC = system: A549 NSCLC
HOP-62 NSCLC = system: HOP-62 NSCLC
SNB-19 CNS = system: SNB-19 CNS
SNB-75 CNS = system: SNB-75 CNS
HL-60(TB) leukemia = system: HL-60(TB) leukemia
786-0 renal = system: 786-0 renal

| SMILES | GI50 (OVCAR-4 ovarian) [µM] | TGI (OVCAR-4 ovarian) [µM] | GI50 (NCI-H522 lung) [µM] | TGI (NCI-H522 lung) [µM] | GI50 (SF-268 CNS) [µM] | TGI (SF-268 CNS) [µM] | GI50 (OVCAR-3 ovarian) [µM] | TGI (OVCAR-3 ovarian) [µM] | GI50 (A549 NSCLC) [µM] | TGI (A549 NSCLC) [µM] | GI50 (HOP-62 NSCLC) [µM] | TGI (HOP-62 NSCLC) [µM] | GI50 (SNB-19 CNS) [µM] | TGI (SNB-19 CNS) [µM] | GI50 (SNB-75 CNS) [µM] | TGI (SNB-75 CNS) [µM] | GI50 (HL-60(TB) leukemia) [µM] | TGI (HL-60(TB) leukemia) [µM] | GI50 (786-0 renal) [µM] | TGI (786-0 renal) [µM] |
| --- | --- | --- | --- | --- | --- | --- | --- | --- | --- | --- | --- | --- | --- | --- | --- | --- | --- | --- | --- | --- |
| CCOC(=O)C(=Cc1cccc(Cl)c1)C(=O)OCC | 2.66 | 8.87 | 1.53 | 3.21 | 2.54 | 7.96 | 1.86 | 3.6 | 11.4 | 24.6 | 2.69 | 7.58 | 2.37 | 6.66 | 2.12 | 7.8 | 2.18 | 5.65 | 1.93 | 4.26 |
| O=C(O)CSc1n[nH]c(-c2ccccc2)n1 |  | > 100 |  | > 100 |  | > 100 |  | > 100 |  | > 100 |  | > 100 |  | > 100 |  | > 100 |  | > 100 |  | > 100 |
| COc1ccc(-c2oc(=O)ccc2-c2cc(OC)c(OC)c(OC)c2)cc1F | 36.5 | > 100 | 3.04 | 23.6 | 33.6 | > 100 | 5.84 | 71.9 | 9.91 | > 100 | 32.7 | > 100 | 53.2 | > 100 | 3.33 | 36.4 | 3.52 | 26.8 | 36.4 | > 100 |
| Cc1nc2ccccc2nc1-c1ccc(N=[N+]([O-])c2ccc(-c3nc4ccccc4nc3C)cc2)cc1 |  | > 100 |  | > 100 |  | > 100 |  | > 100 |  | > 100 |  | > 81.8 |  | > 100 |  | 46 |  | > 100 |  | > 100 |
| O=C(c1ccc(Cl)cc1)c1cnc(Nc2ccccc2Cl)s1 |  | 98.2 |  | 53.1 |  | 57.6 |  | 40.9 |  | 60.3 |  | 54 |  | 51.3 |  | 39.2 |  | > 100 |  | 39.1 |
| COc1ccc2[nH]cc(-c3nc(-c4c[nH]c5ncccc45)cs3)c2c1 | 6.89 | > 100 | 8.02 | > 100 | 6.66 | > 100 | 6.04 | > 100 | 3.4 | > 100 | 5.23 | > 100 |  |  | 2.31 | > 100 | 1.81 | > 100 | 1.97 | > 100 |
| COc1cccc(/C=N/[N-]C(=O)c2ccncc2)c1[O-].[Cu+2].[OH3+] | 78.6 | > 100 |  |  | 28 | > 100 | 33.7 | > 100 | 53.7 | > 100 | 15.7 | 86.4 | > 100 | > 100 | 28.6 | > 100 | 23 | 53.7 | 63.4 | > 100 |
| C1CSCCSCCS1 |  | > 100 |  | > 100 |  | > 100 |  | > 100 |  | > 100 |  | > 100 |  | > 100 |  | > 100 |  | > 100 |  | > 100 |
| Cc1ccc(Cl)cc1Nc1nc(C(F)(F)F)ccc1C(=O)N1CCN(c2cccc(Cl)c2)CC1 | > 100 | > 100 | 89.7 | > 100 | > 100 | > 100 | 8.27 | > 100 | > 100 | > 100 | > 100 | > 100 | > 100 | > 100 | 73.8 | > 100 | 94.4 | > 100 | > 100 | > 100 |
| Oc1cc(O)c2c(c1)OC(c1ccc(O)c(O)c1)C(OC1(c3cc(O)c(O)c(O)c3)Oc3cc(O)cc(O)c3C(O)C1O)C2 (centres undefined) |  | 67.3 |  | 49.7 |  | 66.2 |  | > 80 |  | > 71.7 |  | 56.2 |  | > 100 |  | 60.8 |  | 52.8 |  | 67.8 |
| CN(C)c1c([O-])c(=[N+](C)C)c1=O |  |  |  | > 100 |  | > 100 |  | > 100 |  | > 100 |  | > 100 |  | > 100 |  | > 100 |  | > 100 |  | > 100 |
| Cc1ccc(Cn2c(C)nc3c2C(=O)c2ccccc2C3=O)cc1 |  | 63.4 |  | 18.1 |  | 36.9 |  | 36.6 |  | 34.9 |  | 42.1 |  | 49.8 |  | 36.3 |  | 41 |  | 19.7 |
| CC1=C2CCCC2=C/C(=N/Nc2ccc([N+](=O)[O-])cc2[N+](=O)[O-])CC1 |  | > 100 |  | > 100 |  | > 100 |  | > 100 |  | > 100 |  | > 100 |  | > 100 |  | > 100 |  | > 100 |  | > 100 |
| O=C1[C@@H]2C3c4ccccc4C([C@@H]2C(=O)N1c1ccccc1)S3(=O)=O |  |  |  | > 100 |  | > 100 |  | > 100 |  |  |  |  |  | > 100 |  | > 100 |  | > 100 |  | > 100 |
| CC(=O)O[C@H]1CCC2[C@@H]3CCC4=C(O)c5nocc5C[C@]4(C)C3CC[C@@]21C (some centres undefined) |  | > 100 |  | > 100 |  | > 100 |  | > 100 |  | > 100 |  | > 100 |  | > 100 |  | > 100 |  |  |  | > 100 |
| CCC1C2C=CC(CC2)N1S(=O)(=O)c1ccc(C)cc1 (centres undefined) |  | > 100 |  | 61.5 |  | 67.3 |  | > 100 |  | > 100 |  | 76.3 |  | > 100 |  |  |  | 19.5 |  | > 100 |
| CC1=CC(=O)[C@@H](O)[C@]2(C)[C@H]3[C@@]4(O)OC[C@]35[C@H]([C@@H](C)[C@H]4O)[C@@H](O)C(=O)O[C@@H]5C[C@@H]12 |  | 6.66 |  | 0.7 |  | 0.778 |  | 2.11 |  | 15.5 |  | 1.08 |  | 3.69 |  | 0.759 |  |  |  | 2.13 |
